Columns and labels:
[1] = tested on: human hair follicle dermal papilla cells (HFDPC); assay: Antioxidant test for hair follicle cells (ROS, DCFH-DA, flow cytometry, H2O2 stimulation); type: cell-based; conditions: 0.1 mM compound + 0.5 mM H2O2, read-out: ROS inhibition rate relative to control group G02
Description: 1. Cell strains: human hair follicle dermal papilla cells (HFDPC), which are purchased from PromoCell, with a cell number C-12071, and hereinafter referred to as HFDPC cells.
1. HFDPC cells were inoculated into a 6-well culture medium with 2 ml of cell culture medium in each well at the density of 1×10^5 cells, and cultured at 37° C. for 24 h. Therefore, the HFDPC cells were divided into three test groups which were blank group G01, control group G02 and experimental group, respectively.
2. After culture for 24 h, each group was changed as an experimental culture medium. Where, the experimental culture media in blank G01 and control group G02 were cell culture mediums without cashew testa extracts or compounds thereof. Subsequently, each group was treated at 34° C. for 1 h.
3. After treatment for 1 h, a DCFH-DA treatment reagent was added in each group so that the final concentration of each group was 5 μg/mL, and each group was treated at 37° C. for 15 min.
4. After treatment for 15 min, 100 mM of 5 μl/well H2O2 aqueous solution was added, and each group was treated at 34° C. for 0.5 h.
5. The treated experimental culture medium in each group was removed, and washed 2 times with 1× DPBS.
6. After washing, 500 μl of trypsin was added into each well for 5 min of photophobic reaction. After the reaction, the cell culture medium was added to terminate the reaction. After that, suspended cells and cell culture media in each well were collected into corresponding 1.5 ml micro-centrifuge tubes, and centrifuged for 5 min at 400×g to make cells in each centrifuge tube participated.
7. Supernatant in a centrifuge test tube for each group was removed, and the precipitate cells were washed with 1× DPBS once, and then centrifuged for 5 min at 400×g.
The supernatant in a centrifuge test tube for each group was removed again, and 200 μl of 1× DPBS was added into the centrifuge test tube for each group to resuspend the cells so as to form a cell suspension.
8. The excitation light parameter of flow cytometry was set as 450-490 nm, the scattered light parameter of flow cytometry was set as 510-550, and then the fluorescence signal of DCFH-DA in each group was detected by flow cytometry. After entering the HFDPC cells, DCFH-DA was […] into DCFH (dichlorodihydrofluorescein) and then oxidized into DCF (dichlorofluorescein) capable of emitting green fluorescence by reactive oxygen species (ROS), the fluorescence intensity of the HFDPC cells treated by DCFH-DA can reflect the content of ROS in […], so as to obtain the proportion of highly expressed ROS cells in FDPC cells accounting for the number of original cells.
The relative ROS generation amounts of all groups are calculated according to the following formula: ROS relative generation amount (%)=(green fluorescence signal in each group/green fluorescence signal in blank group G01)×100%.
Since the experiment was repeated for three times, the measurement results of experiment that was repeated for three times were averaged as an average value, and then statistically significant differences between rest results of control group G02 and other groups were obtained by student's t-test statistical analysis. In the figures, “*” represents that compared with control group G02, p is less than 0.05, “**” represents that compared with control group G02, p is less than 0.01, and “***” represents that compared with control group G02, p is less than 0.001.
Refer to FIG. 10. The cells in blank group G01 were neither treated with the cashew testa extract, nor stimulated by adding H2O2, and therefore the test results in blank group G01 represent the expression of cells under the condition of normal physiological metabolism, and the relative ROS generation amount of each group is as shown in FIG. 10. […]

HFDPC cells = assay: Test for promoting hair follicle cell proliferation (EdU, flow cytometry); type: cell-based, human; conditions: 0.1 mM compound, 24 h; for relative hair follicle cell proliferation rate: blank group G01 = 100%
Description: 1. Assay kit: cell proliferation assay kit (Click-iT™ Plus EdU Flow Cytometry Assay Kits-Alexa Fluor™ 488 picolyl azide, 50 tests), which is purchased from Invitrogen, with a product number C10632.
1. HFDPC cells were inoculated into a 6-well culture medium at the density of 1×10^5 cells/well, and cultured under the conditions of 5% CO2 and 37° C. until 80%-90% of cell fullness were achieved.
2. After culture for 24 h, the content of DNA in each group was measured by using cell proliferation assay kit. Therefore, cells in each group were treated according to test procedures provided by the cell proliferation assay kit, then the excitation light parameter of flow cytometer was set as 450-490 nm, and the scattered light parameter of flow cytometer was set as 510-550 nm, and then EdU (5-ethynyl-2′-deoxyuridine) fluorescent signal of each group was detected by flow cytometer.
The proliferation rate of hair follicle cells in each group was based on the content of DNA in each group. The relative hair follicle cell proliferation rates of all groups are calculated according to the following formula: relative hair follicle cell proliferation rate (%)-(fluorescent signal of each group/fluorescent signal of blank group G01)×100%.
The statistically significant difference between test results of blank group G01 and other groups was obtained by student's t-test statistical analysis. In the figures, “*” represents that compared with blank group G01, p is less than 0.05, “**” represents that compared with blank group G01, p is less than 0.01, and “***” represents that compared with blank group G01, p is less than 0.001.

Compound: O=C(/C=C/c1ccc(O)cc1)OC[C@H]1O[C@@H](Oc2cc(O)c3c(c2)OC(c2ccc(O)cc2)CC3=O)[C@H](O)[C@@H](O)[C@@H]1O (stereo partly drawn) [Naringenin 7-O-(6″-O-p-coumaryl)-β-D-glucoside]
- inhibition at 100 µM [1]: 75.8%
- increase of relative hair follicle cell proliferation rate relative to blank group G01 (HFDPC cells): ~25%
- proliferation effect compared with control group G02 (20% fetal bovine serum) (HFDPC cells): superior to that of control group G02
- relative hair follicle cell proliferation rate (HFDPC cells): 125%

Compound: O=C(/C=C/c1ccc(O)cc1)O[C@@H]1Cc2c(O)cc(O)cc2O[C@@H]1c1ccc(O)c(O)c1 [epicatechin coumarin ester, Epicatechin coumarin ester]
- inhibition at 100 µM [1]: 100%
- increase of relative hair follicle cell proliferation rate relative to blank group G01 (HFDPC cells): about 14.1%
- relative hair follicle cell proliferation rate (HFDPC cells): 114.1%

Compound: O=C(O[C@@H]1Cc2c(O)cc(O)cc2O[C@@H]1c1ccc(O)c(O)c1)c1cc(O)c(O)c(O)c1 [epicatechin gallate, Epicatechin gallate]
- inhibition at 100 µM [1]: 96.9%
- relative hair follicle cell proliferation rate (HFDPC cells): 89.9%

Compound: O=C(O)c1cc(O)c(O)c(O)c1 [gallic acid, Gallic acid]
- inhibition at 100 µM [1]: 80%
- relative hair follicle cell proliferation rate (HFDPC cells): 83.7%

Compound: Oc1cc(O)c2c(c1)O[C@H](c1cc(O)c(O)c(O)c1)[C@@H](O)C2 [gallocatechin, Gallocatechin]
- inhibition at 100 µM [1]: 90.8%
- relative hair follicle cell proliferation rate (HFDPC cells): 93.5%

Compound: Oc1cc(O)cc(O)c1 [phloroglucinol, Phloroglucinol]
- inhibition at 100 µM [1]: 53.9%
- increase of relative hair follicle cell proliferation rate relative to blank group G01 (HFDPC cells): ~27.9%
- proliferation effect compared with control group G02 (20% fetal bovine serum) (HFDPC cells): superior to that of control group G02
- relative hair follicle cell proliferation rate (HFDPC cells): 127.9%

Compound: O=C(O)c1ccc(O)c(O)c1 [protocatechuic acid, Protocatechuic acid]
- inhibition at 100 µM [1]: 99.4%
- increase of relative hair follicle cell proliferation rate relative to blank group G01 (HFDPC cells): ~9.6%
- relative hair follicle cell proliferation rate (HFDPC cells): 109.6%

Source: patent publication US20250000783A1, “METHOD FOR HAIR CARE BY USING CASHEW TESTA EXTRACT” (TCI CO., LTD., priority 2023, published 2025)
